Source: US12448363B2, “Kinase inhibitors” (Vidya Therapeutics, Inc., priority 2020, dated 2025)

Key:
[1] = target: BTK (Homo sapiens, UniProt Q06187); test: Assay to determine activity against BTK (EZ reader, FLPeptide); format: biochemical; parameters: purchased Carna; conditions: ATP (1 mM), BTK (2 nM), room temperature for 90 minutes
Method: Solutions of compounds (test or control) in DMSO were prepared at the desired concentrations, and serially diluted to 11 concentrations by 3-fold dilution in 384pp-plate using TECAN EVO200. 20 nL of stock were transferred to 384 plate using Echo550. DMSO was used as vehicle control.
Two separate solutions were prepared—an ATP solution containing MgCl2 (10 mM), Brij-35 (0.01%), DTT (2 mM), BSA (0.05%), EGTA (1 mM), HEPE (pH7.5) (50 mM), FLPeptide (6 uM) and ATP (4 mM); and a BTK solution containing MgCl2 (10 mM), Brij-35 (0.01%), DTT (2 mM), BSA (0.05%), EGTA (1 mM), HEPE (pH7.5) (50 mM) and BTK (2.67 nM). […] (Note the final volume of each well was 20 uL containing MgCl2 (10 mM), Brij-35 (0.01%), DTT (2 mM), BSA (0.05%), EGTA (1 mM), HEPE (pH7.5) (50 mM), FLPeptide (1.5 uM), ATP (1 mM) and BTK (2 nM).
The plates were incubated at room temperature for 90 minutes and then stopping buffer added (75 uL, containing 0.5 M EDTA) to terminate the reaction. Samples from each well were analyzed using EZ reader. The % remaining activity was calculated using read conversion ratio (CR) according to the equation: […]
XLFit (equation 201) was used to calculate IC50s by floating both bottom and top.
With respect to BTK activity, Table 4 lists activity as follows: • “A” denotes an IC50 of less than 10 nM, • “B” denotes an IC50 of from 10 nM to less than 100 nM; and • “C” denotes and IC50 of 100 nM or more.

[2] = system: BTK Activity in RAMOS B Cells; test: Assay to determine BTK activity in RAMOS B cells (anti-IgM, FLIPR Calcium 6); format: cell-based; conditions: EC80 anti-IgM, FLIPR calcium read
Method: On the day before assay, Ramos B cells were plated in plating medium (RPMI1640 medium containing 1% FBS and 1× pencillin-streptomycin). On the day of the assay, 2× dye solution was prepared following the manual of the FLIRP Calcium 6 Assay Kit: Dilute the dye with assay buffer (20 mM HEPES in 1×HBSS, pH7.4); Add probenecid to the final concentration of 5 mM; vortex vigorously for 1-2 minutes. Cells were collected by centrifuging, and the pellet was resuspended in plating medium. After counting, cells were resuspended at a density of 3×10^6/ml in plating medium. Equal volume of 2× dye solution was added to the cell suspension. Cells were then plated at 20 μl/well into a 384-well poly-D-lysine coated plate. Plate was centrifuged at 1000 rpm for 3 minutes and then incubated at 37° C. for 2 hours followed by an additional 15-minute incubation at 25° C. Compounds were prepared at 3× concentration in dilution buffer (20 mM HEPES and 0.1% BSA in 1×HBSS, pH 7.4). Serially diluted compound was transferred from source plate to a 384-well compound plate by using an Echo 550 (Labcyte). 20 μl/well compound dilution buffer was added to the compound plate and mixed on plate shaker for 2 mins. 4×EC80 of Anti-IgM (Jackson ImmunoResearch) was prepared in dilution buffer and 20 μl/well was added to a new 384-well compound plate. After 60 mins of incubation at 25° C. in the dark; cell plate, compound plate containing 4×EC80 of anti-IgM and FLIPR tips were placed into FLIPR (Molecular Devices). 10 ul/well of 4×EC80 anti-IgM was transferred to the cell plate by FLIPR. Plates were read for 160 sec with 1 sec interval.
With respect to Ramos activity, Table 9 lists activity as follows: • “A” denotes an IC50 of less than 10 nM; • “B” denotes an IC50 of from 10 nM to less than 100 nM; and • “C” denotes and IC50 of 100 nM or more.

Chain of BTK (Q06187 whole entry): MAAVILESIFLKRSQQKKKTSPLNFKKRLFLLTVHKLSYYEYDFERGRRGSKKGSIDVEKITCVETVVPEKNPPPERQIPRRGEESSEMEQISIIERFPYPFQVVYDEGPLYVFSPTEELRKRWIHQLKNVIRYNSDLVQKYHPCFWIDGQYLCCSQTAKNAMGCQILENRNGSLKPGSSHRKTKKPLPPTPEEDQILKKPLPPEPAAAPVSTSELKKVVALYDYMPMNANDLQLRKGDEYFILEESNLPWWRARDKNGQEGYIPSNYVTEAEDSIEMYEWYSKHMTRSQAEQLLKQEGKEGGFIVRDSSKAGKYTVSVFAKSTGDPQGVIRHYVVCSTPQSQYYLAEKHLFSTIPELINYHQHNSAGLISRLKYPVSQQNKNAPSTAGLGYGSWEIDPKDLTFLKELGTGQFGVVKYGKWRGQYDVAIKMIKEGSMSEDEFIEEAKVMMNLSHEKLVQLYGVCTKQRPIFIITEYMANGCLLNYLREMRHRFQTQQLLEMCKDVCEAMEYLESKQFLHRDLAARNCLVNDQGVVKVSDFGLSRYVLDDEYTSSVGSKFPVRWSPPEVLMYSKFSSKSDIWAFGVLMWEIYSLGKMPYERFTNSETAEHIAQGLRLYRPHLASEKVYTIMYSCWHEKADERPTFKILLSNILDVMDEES

SMILES	IC50 [1] [nM]	IC50 ([2]; Homo sapiens, Ramos) [nM]	IC50 [2] [nM]	IC50 ([2]; Homo sapiens) [nM]
C=CC(=O)N1CC2CC1c1cccc(-c3c(F)cc(C(N)=O)c4[nH]c(C)c(Cl)c34)c12 (centres unmarked) [Compound 26, 4-(2-acryloyl-1,2,3,4-tetrahydro-1,4-methanoisoquinolin-5-yl)-3-chloro-5-fluoro-2-methyl-1H-indole-7-carboxamide]	≥ 100	≥ 100		
C=CC(=O)N1Cc2cccc(-c3c(F)cc(C(N)=O)c4[nH]c(C)c(Cl)c34)c2C2(CC2)C1 (single isomer, unassigned) [Compound 24d]	≥ 100		≥ 100	
C=CC(=O)N1CCCC(c2c(F)cc(C(N)=O)c3[nH]c(C)c(C(F)F)c23)C1 (centres unmarked) [Compound 14, 4-(1-acryloylpiperidin-3-yl)-3-(difluoromethyl)-5-fluoro-2-methyl-1H-indole-7-carboxamide]	≥ 100	≥ 100		
C=CC(=O)N[C@H]1CN(c2c(F)cc(C(N)=O)c3[nH]c(C)c(C)c23)CC[C@H]1F [Compound 31, 4-((3S,4R)-3-acrylamido-4-fluoropiperidin-1-yl)-5-fluoro-2,3-dimethyl-1H-indole-7-carboxamide]	10 to 100	10 to 100		
C=CC(=O)N1CCC[C@@H](c2c(F)cc(C(N)=O)c3[nH]c(C)c(C(F)F)c23)C1 [Compound 12, (S)-4-(1-acryloylpiperidin-3-yl)-3-(difluoromethyl)-5-fluoro-2-methyl-1H-indole-7-carboxamide]	≥ 100	≥ 100		
C=CC(=O)N1CCc2c(-c3c(F)cc(C(N)=O)c4[nH]c(C)cc34)cccc2C1C1CC1 (centres unmarked) [Compound 23, 4-(2-acryloyl-1-cyclopropyl-1,2,3,4-tetrahydroisoquinolin-5-yl)-5-fluoro-2-methyl-1H-indole-7-carboxamide]	10 to 100	10 to 100		
C=CC(=O)N1CCc2c(-c3c(F)cc(C(N)=O)c4[nH]c(C)c(Cl)c34)cccc2[C@@H]1C (single isomer, unassigned) [Compound 22d]	≥ 100		≥ 100	
C=CC(=O)N1CCCC(c2c(F)cc(C(N)=O)c3[nH]c(C)c(Cl)c23)C1 (centres unmarked) [Compound 2, 4-(1-acryloylpiperidin-3-yl)-3-chloro-5-fluoro-2-methyl-1H-indole-7-carboxamide]	< 10	< 10		
C=CC(=O)N1CCCc2c(cccc2-c2c(F)cc(C(N)=O)c3[nH]c(C)c(Cl)c23)C1 (single isomer, unassigned) [Compound 25d]	10 to 100		≥ 100	
C=CC(=O)N1Cc2cccc(-c3c(F)cc(C(N)=O)c4[nH]c(C)cc34)c2C2(CC2)C1 [Compound 24b, 4-(2′-acryloyl-2′,3′-dihydro-1′H-spiro[cyclopropane-1,4′-isoquinolin]-5′-yl)-5-fluoro-2-methyl-1H-indole-7-carboxamide]	≥ 100	≥ 100		
C=CC(=O)N1Cc2cccc(-c3c(F)cc(C(N)=O)c4[nH]c(C)c(Cl)c34)c2C2(CC2)C1 (single isomer, unassigned) [Compound 24c]	10 to 100	≥ 100		
C=CC(=O)N1CCc2c(cccc2-c2c(F)cc(C(N)=O)c3[nH]c(C)c(C#N)c23)C1 (atropisomer, axis not shown) [Compound 20h, (S)-4-(2-acryloyl-1,2,3,4-tetrahydroisoquinolin-5-yl)-3-cyano-5-fluoro-2-methyl-1H-indole-7-carboxamide]	≥ 100		≥ 100	
C=CC(=O)N1CCc2c(cccc2-c2c(F)c(F)c(C(N)=O)c3[nH]c(C)c(F)c23)C1 [Compound 21d, 4-(2-acryloyl-1,2,3,4-tetrahydroisoquinolin-5-yl)-3,5,6-trifluoro-2-methyl-1H-indole-7-carboxamide]	10 to 100	10 to 100		
C=CC(=O)N[C@H]1CN(c2c(F)cc(C(N)=O)c3[nH]c(C)c(C)c23)CC[C@@H]1F [Compound 30, 4-((3S,4S)-3-acrylamido-4-fluoropiperidin-1-yl)-5-fluoro-2,3-dimethyl-1H-indole-7-carboxamide]	10 to 100	10 to 100		
C=CC(=O)N1CCCC(c2c(F)c(F)c(C(N)=O)c3[nH]c(C)c(C#N)c23)C1 (centres unmarked) [Compound 10, 4-(1-acryloylpiperidin-3-yl)-3-cyano-5,6-difluoro-2-methyl-1H-indole-7-carboxamide]	10 to 100	10 to 100		
C=CC(=O)N1CCCc2c(cccc2-c2c(F)cc(C(N)=O)c3[nH]c(C)cc23)C1 [Compound 25b, 4-(2-acryloyl-2,3,4,5-tetrahydro-1H-benzo[c]azepin-6-yl)-5-fluoro-2-methyl-1H-indole-7-carboxamide]	10 to 100			≥ 100
C=CC(=O)N[C@H]1C[C@H](O)CN(c2c(F)cc(C(N)=O)c3[nH]c(C)c(C)c23)C1 [Compound 38, 4-((3S,5S)-3-acrylamido-5-hydroxypiperidin-1-yl)-5-fluoro-2,3-dimethyl-1H-indole-7-carboxamide]	10 to 100	10 to 100		
C=CC(=O)N1CCCC(c2c(F)c(F)c(C(N)=O)c3[nH]c(C)c(F)c23)C1 (centres unmarked) [Compound 13, 4-(1-acryloylpiperidin-3-yl)-3,5,6-trifluoro-2-methyl-1H-indole-7-carboxamide]	< 10	< 10		
C=CC(=O)N1CCc2c(-c3c(F)cc(C(N)=O)c4[nH]c(C)c(Cl)c34)cccc2[C@H]1C (single isomer, unassigned) [Compound 22e]	< 10		< 10	
C=CC(=O)N1CCc2c(cccc2-c2c(F)c(F)c(C(N)=O)c3[nH]c(C)c(C#N)c23)C1 [Compound 21e, 4-(2-acryloyl-1,2,3,4-tetrahydroisoquinolin-5-yl)-3-cyano-5,6-difluoro-2-methyl-1H-indole-7-carboxamide]	10 to 100	10 to 100		
C=CC(=O)N1CCCC(c2c(F)c(F)c(C(N)=O)c3[nH]c(C)c(Cl)c23)C1 (centres unmarked) [Compound 3, 4-(1-acryloylpiperidin-3-yl)-3-chloro-5,6-difluoro-2-methyl-1H-indole-7-carboxamide]	< 10	< 10		
C#CC(=O)N1CCC[C@@H](c2c(F)cc(C(N)=O)c3[nH]c(C)c(Cl)c23)C1 [Compound 8, (S)-3-chloro-5-fluoro-2-methyl-4-(1-propioloylpiperidin-3-yl)-1H-indole-7-carboxamide]	< 10	< 10		
C=CC(=O)N1CCc2c(cccc2-c2c(F)c(F)c(C(N)=O)c3[nH]c(C)c(Cl)c23)C1 (atropisomer, axis not shown) [Compound 21b, (R)-4-(2-acryloyl-1,2,3,4-tetrahydroisoquinolin-5-yl)-3-chloro-5,6-difluoro-2-methyl-1H-indole-7-carboxamide]	< 10		< 10	
CC#CC(=O)N1CCC[C@@H](c2c(F)cc(C(N)=O)c3[nH]c(C)c(Cl)c23)C1 [Compound 18, (S)-4-(1-(but-2-ynoyl)piperidin-3-yl)-3-chloro-5-fluoro-2-methyl-1H-indole-7-carboxamide]	≥ 100	≥ 100		
C=CC(=O)N1CCCc2c(cccc2-c2c(F)cc(C(N)=O)c3[nH]c(C)c(F)c23)C1 [Compound 25e, 4-(2-acryloyl-2,3,4,5-tetrahydro-1H-benzo[c]azepin-6-yl)-3,5-difluoro-2-methyl-1H-indole-7-carboxamide]	10 to 100	≥ 100		
